From patent publication US12059400B2, “Medical compound” (VERA SALUS RICERCA S.R.L., priority 2017, dated 2024)

System: human ovarian carcinoma cells (OVCAR-3)
Experiment: Cell proliferation, crystal violet method
Format: cell-based

IC50 (crystal violet, spectrophotometer, read-out: IC50 anti-proliferative effect, OCC - (OVCAR)): 79.2 µM
Substance: 2-(3,4-dihydroxyphenyl)-5,7-dihydroxy-4-oxo-4H-chromen-3-yl palmitate [Compound 5]
OVCAR-3 cell growth vs vehicle control (60 μM, FIG. 11a, 11b): significantly inhibit
